In ChEMBL document CHEMBL1201862, “PubChem BioAssay data set” (2004):
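Assay format: 96-well plates, 48-hour exposure. GI50 is the concentration that inhibits growth by half.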 The source made the active and inactive calls. Rule as the data show it: active = GI50 up to about 1.1 µM and inactive = higher.

Columns and labels:
Assay in all cases: NCI-60 cell line screen, 48 h
SF-539 = test system: SF-539
786-0 = test system: 786-0
NCI-H460 = test system: NCI-H460
NCI-H226 = test system: NCI-H226
SK-OV-3 = test system: SK-OV-3
DU-145 = test system: DU-145
SR = test system: SR
A549 = test system: A549
SK-MEL-2 = test system: SK-MEL-2
PC-3 = test system: PC-3
COLO 205 = test system: COLO 205
MCF7 = test system: MCF7
HCT-116 = test system: HCT-116
HL-60 = test system: HL-60
MDA-MB-231 = test system: MDA-MB-231
MDA-MB-435 = test system: MDA-MB-435
ACHN = test system: ACHN
A498 = test system: A498
SK-MEL-5 = test system: SK-MEL-5
LOX IMVI = test system: LOX IMVI
HOP-92 = test system: HOP-92
CAKI-1 = test system: CAKI-1
NCI-H23 = test system: NCI-H23
UACC-62 = test system: UACC-62
SF-295 = test system: SF-295
U-251 = test system: U-251
SK-MEL-28 = test system: SK-MEL-28
OVCAR-5 = test system: OVCAR-5
MDA-N = test system: MDA-N
K562 = test system: K562
SF-268 = test system: SF-268
KM12 = test system: KM12
CCRF-CEM = test system: CCRF-CEM
SW-620 = test system: SW-620
HOP-62 = test system: HOP-62
SN12C = test system: SN12C
SNB-75 = test system: SNB-75
OVCAR-3 = test system: OVCAR-3
BT-549 = test system: BT-549
MOLT-4 = test system: MOLT-4
UO-31 = test system: UO-31
Hs-578T = test system: Hs-578T
T47D = test system: T47D
HT-29 = test system: HT-29
HCT-15 = test system: HCT-15
UACC-257 = test system: UACC-257
TK-10 = test system: TK-10
RPMI-8226 = test system: RPMI-8226
SNB-19 = test system: SNB-19
IGROV-1 = test system: IGROV-1
EKVX = test system: EKVX
M14 = test system: M14
HCC 2998 = test system: HCC 2998
OVCAR-8 = test system: OVCAR-8
NCI/ADR-RES = test system: NCI/ADR-RES
NCI-H522 = test system: NCI-H522
Malme-3M = test system: Malme-3M
RXF 393 = test system: RXF 393
OVCAR-4 = test system: OVCAR-4

SMILES: O=c1[nH]c2ccccc2c(=O)n1/N=C\c1ccccc1O
- GI50 (SF-539): > 100 µM (inactive)
- GI50 (786-0): > 100 µM (inactive)
- GI50 (NCI-H460): > 100 µM (inactive)
- GI50 (NCI-H226): > 100 µM (inactive)
- GI50 (SK-OV-3): > 100 µM (inactive)
- GI50 (DU-145): > 100 µM (inactive)
- GI50 (SR): > 100 µM (inactive)
- GI50 (A549): > 100 µM (inactive)
- GI50 (SK-MEL-2): > 100 µM (inactive)
- GI50 (PC-3): > 100 µM (inactive)
- GI50 (COLO 205): > 100 µM (inactive)
- GI50 (MCF7): > 100 µM (inactive)
- GI50 (HCT-116): > 100 µM (inactive)
- GI50 (HL-60): 36.1 µM (inactive)
- GI50 (MDA-MB-231): > 100 µM (inactive)
- GI50 (MDA-MB-435): > 100 µM (inactive)
- GI50 (ACHN): > 100 µM (inactive)
- GI50 (A498): > 100 µM (inactive)
- GI50 (SK-MEL-5): 88.3 µM (inactive)
- GI50 (LOX IMVI): > 100 µM (inactive)
- GI50 (HOP-92): 67 µM (inactive)
- GI50 (CAKI-1): > 100 µM (inactive)
- GI50 (NCI-H23): > 100 µM (inactive)
- GI50 (UACC-62): > 100 µM (inactive)
- GI50 (SF-295): > 100 µM (inactive)
- GI50 (U-251): > 100 µM (inactive)
- GI50 (SK-MEL-28): > 100 µM (inactive)
- GI50 (OVCAR-5): > 100 µM (inactive)
- GI50 (MDA-N): > 100 µM (inactive)
- GI50 (K562): > 100 µM (inactive)
- GI50 (SF-268): 58.6 µM (inactive)
- GI50 (KM12): 30.5 µM (inactive)
- GI50 (CCRF-CEM): > 100 µM (inactive)
- GI50 (SW-620): > 100 µM (inactive)
- GI50 (HOP-62): > 100 µM (inactive)
- GI50 (SN12C): > 100 µM (inactive)
- GI50 (SNB-75): 36.4 µM (inactive)
- GI50 (OVCAR-3): > 100 µM (inactive)
- GI50 (BT-549): > 100 µM (inactive)
- GI50 (MOLT-4): > 100 µM (inactive)
- GI50 (UO-31): > 100 µM (inactive)
- GI50 (Hs-578T): 32.3 µM (inactive)
- GI50 (T47D): > 100 µM (inactive)
- GI50 (HT-29): > 100 µM (inactive)
- GI50 (HCT-15): > 100 µM
- GI50 (UACC-257): > 100 µM (inactive)
- GI50 (TK-10): > 100 µM (inactive)
- GI50 (RPMI-8226): > 100 µM (inactive)
- GI50 (SNB-19): > 100 µM (inactive)
- GI50 (IGROV-1): > 100 µM (inactive)
- GI50 (EKVX): 22.8 µM (inactive)
- GI50 (M14): > 100 µM (inactive)

SMILES: CCN(CCC#N)C(=O)Nc1ccccc1
- GI50 (SF-539): > 100 µM (inactive)
- GI50 (786-0): > 100 µM (inactive)
- GI50 (NCI-H460): > 100 µM (inactive)
- GI50 (NCI-H226): > 100 µM (inactive)
- GI50 (SK-OV-3): > 100 µM (inactive)
- GI50 (HCC 2998): > 100 µM (inactive)
- GI50 (DU-145): > 100 µM (inactive)
- GI50 (A549): > 100 µM (inactive)
- GI50 (SK-MEL-2): > 100 µM (inactive)
- GI50 (PC-3): > 100 µM (inactive)
- GI50 (COLO 205): > 100 µM (inactive)
- GI50 (MCF7): > 100 µM (inactive)
- GI50 (HCT-116): > 100 µM (inactive)
- GI50 (MDA-MB-231): > 100 µM (inactive)
- GI50 (MDA-MB-435): > 100 µM (inactive)
- GI50 (ACHN): > 100 µM (inactive)
- GI50 (SK-MEL-5): > 100 µM (inactive)
- GI50 (LOX IMVI): > 100 µM (inactive)
- GI50 (HOP-92): > 100 µM (inactive)
- GI50 (CAKI-1): > 100 µM (inactive)
- GI50 (NCI-H23): > 100 µM (inactive)
- GI50 (UACC-62): > 100 µM (inactive)
- GI50 (SF-295): > 100 µM (inactive)
- GI50 (U-251): > 100 µM (inactive)
- GI50 (SK-MEL-28): > 100 µM (inactive)
- GI50 (OVCAR-5): > 100 µM (inactive)
- GI50 (MDA-N): > 100 µM (inactive)
- GI50 (OVCAR-8): > 100 µM (inactive)
- GI50 (K562): > 100 µM (inactive)
- GI50 (KM12): 86.7 µM (inactive)
- GI50 (NCI/ADR-RES): > 100 µM (inactive)
- GI50 (CCRF-CEM): > 100 µM (inactive)
- GI50 (SW-620): > 100 µM (inactive)
- GI50 (HOP-62): > 100 µM (inactive)
- GI50 (SN12C): > 100 µM (inactive)
- GI50 (NCI-H522): > 100 µM (inactive)
- GI50 (SNB-75): 93.1 µM (inactive)
- GI50 (OVCAR-3): > 100 µM (inactive)
- GI50 (Malme-3M): 62.7 µM (inactive)
- GI50 (BT-549): > 100 µM (inactive)
- GI50 (MOLT-4): > 100 µM (inactive)
- GI50 (UO-31): > 100 µM (inactive)
- GI50 (T47D): > 100 µM (inactive)
- GI50 (HT-29): > 100 µM (inactive)
- GI50 (RXF 393): > 100 µM (inactive)
- GI50 (HCT-15): > 100 µM
- GI50 (UACC-257): > 100 µM (inactive)
- GI50 (TK-10): > 100 µM (inactive)
- GI50 (OVCAR-4): > 100 µM (inactive)
- GI50 (RPMI-8226): > 100 µM (inactive)
- GI50 (SNB-19): > 100 µM (inactive)
- GI50 (IGROV-1): > 100 µM (inactive)
- GI50 (EKVX): > 100 µM (inactive)
- GI50 (M14): > 100 µM (inactive)
